As usually defined, the inhibition is the relative decrease from the control value, in per cent. A high value points to strong suppression.

The results in this text go back to patent US9115092B2, “Substituted quinazoline and pyrido-pyrimidine derivatives” (Asana Biosciences, LLC, priority 2010, dated 2015).

A value given as a limit tells only on which side of the number the result lay.

Test [1] deals with T1, PI3Kα (wild-type), P110/P85α (Homo sapiens, UniProt P42336).
T1 construct: made in house; host or cells: SF9 insect cells
The test is described as follows: PI3 Kinase TR-FRET assay, PI3Kα (wild-type). It is filed as biochemical. The method in brief:
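Sf9-expressed His-purified P110/P85α (5 ng) preincubated 60 min RT with compound and PIP2 in buffer with 40 mM MgCl2, 5 mM DTT; reaction started with ATP (PIP2 and ATP both 10 μM), 30 min RT. PIP3 detected by TR-FRET displacement, 665/615 nm ratio; IC50 from dose-response curves.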
On the technique in general: Time-resolved FRET reads energy transfer from a long-lived donor to a nearby acceptor.

The target of test [2] is PI3 kinase isoform δ (Homo sapiens, UniProt O00329). As to the kind of experiment: PI3 Kinase TR-FRET assay, isoform δ. It is filed as biochemical. As to conditions: read-out: inhibition of PI3 kinase isoform δ, IC50. As to the method:
The ability of compounds of the invention to inhibit PI3K activity was determined in a homogeneous TR-FRET assay using a PI3K assay kit (Millipore, USA; cat #33-016) according to manufacturer's instructions. PI3-Kinases (isoforms α, β, γ and δ) catalyze the phosphorylation of phosphatidylinositol, PIP2 to PIP3 in the presence of ATP and Mg^2+. The PIP3 product is detected by displacement of biotin-PIP3 from an energy transfer complex consisting of Europium labeled anti-GST monoclonal antibody, a GST-tagged PH domain, biotinylated PIP3 and Streptavidin-APC. Excitation of Europium in the complex results in an energy transfer to the APC and a fluorescence emission at 665 nm. The PIP3 product displaces biotin-PIP3 from the complex resulting in a loss of energy transfer and thus a decrease in signal.
To test for the ability of compounds to inhibit the activity of PI3Kα (wild-type), exemplary compounds of formula (I) were dissolved in DMSO and directly distributed into 384-well plates at a volume of 0.5 μL. 14.5 μL of P110/P85α/PIP2 mixture in buffer (obtained from the Millipore kit) containing MgCl2 (40 mM) and DTT (5 mM) was added to compound wells and incubated for 60 min at room temperature. P110/P85α was expressed in SF9 insect cells and purified nickel column extraction. Five ng of wild-type P110/P85α was used in the assay. The kinase reaction was started by the addition of ATP. The assay concentrations of both PIP2 and ATP were 10 μM. The reaction mixture was incubated for 30 min at room temperature and was terminated by the addition of stop mix and detection mix. Fluorescence was measured at 615 and 665 nm upon excitation at 340 nm in a Victor™ V5 fluorometer (Perkin Elmer, USA). The fluorescence emission ratio at 665 to 615 nm, proportional to the kinase activity, was plotted against the compound concentration to generate dose-response curves and IC50 values were determined using GraphPad Prism® 5 software.
The activity of PI3 kinase isoforms β, γ and δ were assayed in a similar manner to the assay protocol described above for PI3Kα, by substituting the appropriate p110/p85 isoform for the p110α/p85α. Compounds of formula (I) caused inhibition of PI3 kinase isoforms β, γ and δ as determined by these assays. For example, the compounds of examples 3, 51, 54, 111, 113, 115, and 253 each caused inhibition of PI3 kinase isoform β with IC50 values <50 nM. The compounds of examples 104, 133, 146 and 152 each caused inhibition of PI3 kinase isoform β with IC50 values <500 nM. The compounds of examples 3, 51, 54, 104, 111, 113, 115, 133, 253, and 152 each caused inhibition of PI3 kinase isoform γ with IC50 values <500 nM. […] The compounds of examples 2, 3, 51, 54, 111, 113, and 253 each caused inhibition of PI3 kinase isoform […] with IC50 values >1 μM.

The target of test [3] is T2, mTOR kinase (Homo sapiens, UniProt P42345).
T2 construct: purchased Millipore, USA
The test is described as follows: mTOR kinase TR-FRET assay. The test is classed as biochemical. Conditions: read-out: mTO R. A digest of the protocol: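 Compounds preincubated 60 min with mTOR (5 ng) in HEPES pH 7.5, EGTA, MnCl2; ULight-p70 S6K Thr389 peptide (50 nM) and ATP (20 μM) then added, 60 min at room temperature. EDTA-stopped, Eu-anti-phospho antibody detection by TR-FRET (665/615 nm); IC50 from variable-slope sigmoidal fit.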

Test [4] relates to PC3 cells. The test is described as follows: XTT assay for cell viability, PC3 cells. The test is classed as cell-based, human. As to conditions: Homo sapiens, PC-3, cell viability. The method in brief:
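PC3 cells seeded at 1000 cells/well, grown 24 h, then exposed to serial dilutions of compound for 96 h. Viability read by XTT dye at 37° C, absorbance 465 nm. EC50 from sigmoidal dose-response fit.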

Test [5] concerns pAKT(5473) (phosphorylated at serine 473), PC3 cells. The test is described as follows: In-cell Western assay, pAKT(5473) in PC3 cells. It is filed as cell-based. Conditions: Homo sapiens, PC-3, In-cell Western, read-out: pAkt-S473. The method, then: (§1) Cells from human prostate cancer cell line PC3 (American Type Culture Collection (ATCC), Manassas, Va. 20108 USA) were seeded at an optimal density of 22,000 cell/well in 96-well plates containing Ham's F12K medium (90 μL) and incubated overnight. The compound dilutions were carried out in 100% DMSO followed by a dilution in the medium. Test compounds were added in serial dilutions to the wells and incubated for 2 h. The cells were washed and fixed with 4% paraformaldehyde. After incubation at room temperature for 1 h in the dark, blocking was done for 2 h at room temperature. Primary antibodies for phosphorylated (p) AKT(5473) (phosphorylated at serine 473), pAKT(T308) (phosphorylated at threonine 308) and for pS6RP(S235/236) (phosphorylated at serine 235/236) (commercially available from Cell Signaling Technology®, whose protocol was followed for the in-cell western assay, were diluted to the required concentration and added to the corresponding wells followed by overnight incubation at 4° C. Eu-labeled rabbit (PE) (Perkin-Elmer USA catalog #AD0106) secondary antibody was added and incubated for 2 h at room temperature. Delfia® enhancement solution (cat #1244-105, Perkin Elmer USA) was subsequently added to the plate before taking the reading at 615 nm with excitation wavelength of 340 nm, after which 0.5 μg/mL of Hoechst® 33258 dye (Catalog #86140-5, Sigma) was added to the plate and fluorescence emission was read at 460 nm with 355 nm excitation, to evaluate the correction factor. IC50 values were calculated using a sigmoidal dose-response curve fit in GraphPad Prism® v5 software.

Test [6] has as its system pAKT(T308) (phosphorylated at threonine 308), PC3 cells. The test is described as follows: In-cell Western assay, pAKT(T308) in PC3 cells. The test is classed as cell-based. As to conditions: Homo sapiens, PC-3, In-cell Western. The method, then:
as §1

For test [7], the system named is pS6RP(S235/236), PC3 cells. As to the kind of experiment: In-cell Western assay, pS6RP(S235/236) in PC3 cells. As to conditions: Homo sapiens, PC-3, In-cell Western. The test is classed as cell-based, human. The method in brief: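 Overnight-seeded PC3 cells were treated 2 h with serially diluted compound, then fixed and immunostained with phospho-specific primary antibodies and Eu-labelled secondary. Time-resolved Eu signal read at 615 nm (ex 340 nm), normalised by Hoechst 33258 staining (ex 355/em 460 nm); IC50 from sigmoidal dose-response fit.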

Test [8] deals with pS6RP in PC3 tumor. The test is described as follows: In vivo PK/PD study, PC3 tumor bearing mice, pS6RP. Conditions: Mus musculus, 50 mg/kg po, at 3 and 8 hours. As to the method:
PC3 cells were cultured at 37° C. in a 5% CO2 incubator using Hams F12 K medium. Ten million (10^7) cells were injected subcutaneously to the right flank region of athymic male mice (Harlan, age: 6-7 weeks, weight: about 20 g). Tumor bearing mice were randomized when the tumor volume reached about 250 mm^3 and three mice were used per each time point. Test compounds of formula (I) were formulated in 40% HPCD in 1×PBS, pH 7.4 and dosed orally at 50 mg/kg single dose (dose volume−10 mL/kg). Plasma and tumor samples were collected at 0 (vehicle control animals), 1, 4 and 24 hours post dosing. Blood was drawn (retro orbital) to a tube containing 0.2% EDTA for plasma collection. The tumor was excised from the mouse and immediately frozen in liquid nitrogen for PD analysis. Tumor and plasma drug concentrations were measured for PK analysis using LC-MS.
Snap frozen tumor samples were pulverized in a mortar (Belart) containing liquid nitrogen and tumor powder was stored at −80° C. until analysis. Pre coated ELISA kits (Cell Signaling Technology; pAKT(T308), CST#7135; pAKT(5473), CST#7134 and pS6RP, CST#7205) were used for PD analysis. Tumor powder was transferred to Eppendorf® tubes and lysis buffer (1 mL) was added to the powder. Protease and phosphatase inhibitors (SIGMA) and phenylmethanesulfonylfluoride (PMSF) were added to tumor powder and mixed by vortexing followed by sonication (15 sec). Samples were kept on an ice bath for 30 min. Supernatant was separated after centrifugation at 10,000 rpm for 20 min at 4° C. Supernatant was re-centrifuged and fresh supernatant was aliquoted to different tubes. Total protein was estimated using a BCA kit (Thermo Scientific) and 50 μg total protein was loaded to each well. ELISA analysis was carried out as per manufacturer's instructions. The detection for pAKT was based on chemiluminescence and pS6RP was based on absorbance. Qualitative assessments of the suppression of pAKT(T308), pAKT(5473), and pS6RP were also carried out by standard Western blot analyses.
For example, the compound of Example 1, at 50 mg/kg po, caused about 50% inhibition of pAkt(5473) at 1 and 4 hours and >50% inhibition of pS6RP at 1, 4 and 24 hours. Also, the compound of Example 2, at 50 mg/kg po, caused about 25-30% inhibition of pAkt(5473) at 4 and 24 hours and >50% inhibition of pS6RP at 1, 4 and 24 hours. The compound of example 51, at 30 mg/kg po, caused >50% inhibition of pS6RP at 2, 4 and 24 hours. Also, the compounds of examples 133, 146, 147, and 228, at 50 mg/kg po, each caused >50% inhibition of pS6RP at 3 and 8 hours.

PI3 kinase isoform δ, sequence (O00329 whole entry, the tested form may be a part, canonical isoform): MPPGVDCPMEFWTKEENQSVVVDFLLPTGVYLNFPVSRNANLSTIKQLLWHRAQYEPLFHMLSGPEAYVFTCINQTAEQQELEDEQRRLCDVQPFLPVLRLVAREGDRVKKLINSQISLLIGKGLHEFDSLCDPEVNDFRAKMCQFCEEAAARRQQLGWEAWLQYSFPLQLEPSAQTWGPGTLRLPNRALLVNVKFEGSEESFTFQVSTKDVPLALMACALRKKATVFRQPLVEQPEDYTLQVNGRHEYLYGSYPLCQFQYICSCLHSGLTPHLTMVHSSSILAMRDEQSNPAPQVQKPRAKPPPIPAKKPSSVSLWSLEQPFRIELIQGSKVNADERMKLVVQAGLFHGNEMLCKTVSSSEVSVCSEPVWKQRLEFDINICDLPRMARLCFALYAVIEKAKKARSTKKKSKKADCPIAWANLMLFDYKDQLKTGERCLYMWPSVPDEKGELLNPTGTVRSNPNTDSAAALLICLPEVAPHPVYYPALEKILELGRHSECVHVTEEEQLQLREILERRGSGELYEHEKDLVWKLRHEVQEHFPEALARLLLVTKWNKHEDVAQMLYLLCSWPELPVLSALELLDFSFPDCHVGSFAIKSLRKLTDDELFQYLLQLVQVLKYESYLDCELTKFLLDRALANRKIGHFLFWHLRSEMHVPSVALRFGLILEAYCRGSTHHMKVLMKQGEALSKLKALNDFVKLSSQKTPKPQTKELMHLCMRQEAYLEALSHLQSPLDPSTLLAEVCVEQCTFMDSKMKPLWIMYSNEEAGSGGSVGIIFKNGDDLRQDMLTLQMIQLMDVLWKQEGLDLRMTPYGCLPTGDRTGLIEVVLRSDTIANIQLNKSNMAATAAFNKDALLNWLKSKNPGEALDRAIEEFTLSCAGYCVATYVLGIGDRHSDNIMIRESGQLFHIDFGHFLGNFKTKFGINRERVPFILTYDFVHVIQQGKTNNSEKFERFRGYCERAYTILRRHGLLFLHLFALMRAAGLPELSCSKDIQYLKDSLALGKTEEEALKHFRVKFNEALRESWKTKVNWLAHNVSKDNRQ
PI3 kinase isoform δ, sequence (P27986 whole entry partner, the tested form may be a part, canonical isoform): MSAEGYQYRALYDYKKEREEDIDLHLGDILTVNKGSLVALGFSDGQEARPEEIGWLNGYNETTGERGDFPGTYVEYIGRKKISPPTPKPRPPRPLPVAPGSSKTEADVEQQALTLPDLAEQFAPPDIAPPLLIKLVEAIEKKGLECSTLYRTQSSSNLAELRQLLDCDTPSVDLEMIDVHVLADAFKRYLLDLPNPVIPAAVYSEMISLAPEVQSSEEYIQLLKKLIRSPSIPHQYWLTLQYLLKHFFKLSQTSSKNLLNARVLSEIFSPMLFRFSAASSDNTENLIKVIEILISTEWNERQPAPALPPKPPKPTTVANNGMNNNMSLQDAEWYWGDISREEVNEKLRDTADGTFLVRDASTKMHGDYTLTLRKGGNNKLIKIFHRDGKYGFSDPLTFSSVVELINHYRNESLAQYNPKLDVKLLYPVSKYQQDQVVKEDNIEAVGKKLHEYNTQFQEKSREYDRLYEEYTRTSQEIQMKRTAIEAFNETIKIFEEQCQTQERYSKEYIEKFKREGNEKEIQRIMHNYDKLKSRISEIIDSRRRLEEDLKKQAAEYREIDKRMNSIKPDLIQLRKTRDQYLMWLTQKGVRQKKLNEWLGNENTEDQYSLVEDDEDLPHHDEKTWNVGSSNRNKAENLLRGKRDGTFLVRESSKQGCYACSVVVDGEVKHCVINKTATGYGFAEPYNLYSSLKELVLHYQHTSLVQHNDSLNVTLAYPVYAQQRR
T1 sequence (P42336 whole entry): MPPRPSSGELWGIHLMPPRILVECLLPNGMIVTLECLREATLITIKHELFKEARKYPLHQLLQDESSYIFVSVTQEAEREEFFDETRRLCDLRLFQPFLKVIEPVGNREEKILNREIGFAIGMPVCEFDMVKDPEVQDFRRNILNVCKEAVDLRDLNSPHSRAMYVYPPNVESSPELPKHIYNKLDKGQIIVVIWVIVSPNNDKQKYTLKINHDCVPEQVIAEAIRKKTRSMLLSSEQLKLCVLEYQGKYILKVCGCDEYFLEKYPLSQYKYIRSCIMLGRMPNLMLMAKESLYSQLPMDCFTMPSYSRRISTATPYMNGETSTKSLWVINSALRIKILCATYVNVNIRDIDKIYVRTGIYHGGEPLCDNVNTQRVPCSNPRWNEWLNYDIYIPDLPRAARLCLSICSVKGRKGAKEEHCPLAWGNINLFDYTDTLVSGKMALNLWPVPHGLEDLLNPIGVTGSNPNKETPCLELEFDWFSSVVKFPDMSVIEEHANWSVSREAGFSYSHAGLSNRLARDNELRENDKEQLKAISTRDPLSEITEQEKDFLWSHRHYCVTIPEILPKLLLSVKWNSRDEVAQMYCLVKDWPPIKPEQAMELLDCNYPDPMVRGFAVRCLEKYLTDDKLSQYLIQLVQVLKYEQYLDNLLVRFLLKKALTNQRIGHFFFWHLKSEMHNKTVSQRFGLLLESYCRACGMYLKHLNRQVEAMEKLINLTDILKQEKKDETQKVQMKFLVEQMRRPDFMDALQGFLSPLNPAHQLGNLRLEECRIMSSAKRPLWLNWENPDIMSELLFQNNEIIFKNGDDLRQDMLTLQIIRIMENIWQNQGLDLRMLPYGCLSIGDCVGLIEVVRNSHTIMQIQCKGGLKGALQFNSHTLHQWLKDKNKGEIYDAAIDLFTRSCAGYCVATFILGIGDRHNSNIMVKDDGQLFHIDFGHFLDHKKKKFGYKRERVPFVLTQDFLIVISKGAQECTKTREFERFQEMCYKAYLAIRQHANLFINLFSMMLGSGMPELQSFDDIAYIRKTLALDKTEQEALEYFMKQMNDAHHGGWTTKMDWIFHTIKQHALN
T1 sequence (P27986 whole entry partner): as the sequence (P27986 whole entry partner, the tested form may be a part, canonical isoform) above

With `CN(C)C(=O)c1ccc(NC(=O)Nc2ccc(-c3nc(N4CCOCC4)c4ccc(-c5cccc(S(C)(=O)=O)c5)cc4n3)cn2)cc1` [Example 3], the IC50 in test [1] is below 0.05 µM; in test [2], above 1 µM; in test [3], 0.05 to 0.2 µM; in test [4], 0.1 to 0.5 µM.
Turning to `CC(=O)Nc1cccc(-c2ccc3c(N4CCOCC4)nc(-c4ccc(NC(=O)Nc5ccc(C(=O)N(C)C)cc5)cc4)nc3c2)c1` [Example 49, 4-(3-{4-[7-(3-acetylamino-phenyl)-4-morpholin-4-yl-quinazolin-2-yl]-phenyl}-ureido)-N,N-dimethyl-benzamide], the IC50 in test [1] was below 0.05 µM; in test [3], below 0.05 µM; in test [5] it was 0.1 to 0.5 µM; in test [6] it was 0.1 to 0.5 µM; in test [7], below 0.1 µM; in test [4], below 0.1 µM.
As to `CN(C)C(=O)c1ccc(NC(=O)Nc2ccc(-c3nc(N4CCOCC4)c4ccc(-c5cccnc5F)cc4n3)cn2)cc1` [Example 54, 4-(3-{5-[7-(2-fluoro-pyridin-3-yl)-4-morpholin-4-yl-quinazolin-2-yl]-pyridin-2-yl}-ureido)-N,N-dimethyl-benzamide], the IC50 in test [1] is below 0.05 µM; in test [2], above 1 µM; in test [3], 0.05 to 0.2 µM; in test [4], 0.1 to 0.5 µM.
For the compound `CN(C)C(=O)c1ccc(NC(=O)Nc2ccc(-c3nc(N4CCOCC4)c4ncc(-c5cccnc5F)cc4n3)cn2)cc1` [Example 111, 4-(3-(5-(7-(2-fluoropyridin-3-yl)-4-morpholino-pyrido[3,2-d]pyrimidin-2-yl)pyridin-2-yl)ureido)-N,N-dimethyl-benzamide], the IC50 in test [1] is below 0.05 µM; in test [2], above 1 µM; in test [3], below 0.05 µM; in test [5], 0.201 to 10 µM; in test [7], 0.201 to 10 µM; in test [4], 0.201 to 10 µM.
Turning to `CN(C)C(=O)c1ccc(NC(=O)Nc2ccc(-c3nc(N4CCOCC4)c4cc(F)c(-c5cnn(C)c5)cc4n3)cn2)cc1` [Example 113, 4-(3-(5-(6-fluoro-7-(1-methyl-1H-pyrazol-4-yl)-4-morpholino-quinazolin-2-yl)pyridin-2-yl)ureido)-N,N-dimethyl-benzamide], the IC50 in test [1] was below 0.05 µM; in test [2], above 1 µM; in test [3] it was 0.05 to 0.2 µM; in test [5], below 0.1 µM; in test [7], below 0.1 µM; in test [4], 0.201 to 10 µM.
Take `CN(C)C(=O)c1ccc(NC(=O)Nc2ccc(-c3nc(N4CCOCC4)c4ccc(-c5ccc(CO)o5)cc4n3)cc2)c(F)c1` [Example 228, 3-fluoro-4-(3-(4-(7-(5-(hydroxymethyl)furan-2-yl)-4-morpholino-quinazolin-2-yl)phenyl)ureido)-N,N-dimethyl-benzamide]: the IC50 is below 0.05 µM in test [1], below 0.05 µM in test [3] and 0.501 to 5 µM in test [5]. The compound further returned an inhibition at 50 mg/kg in test [8] above 50%.
Take `CN(C)C(=O)c1ccc(NC(=O)Nc2ccc(-c3nc(N4CCOCC4)c4ccc(-c5cccc(S(C)(=O)=O)c5)cc4n3)cn2)cc1F` [Example 253, 2-fluoro-N,N-dimethyl-4-(3-(5-(7-(3-(methylsulfonyl)phenyl)-4-morpholino-quinazolin-2-yl)pyridin-2-yl)ureido)-benzamide]: the IC50 is below 0.05 µM in test [1], above 1 µM in test [2], 0.201 to 10 µM in test [3] and below 0.1 µM in test [5].
